Laboratory results published in paper PMC7686313, “Phase 1 study of mTORC1/2 inhibitor sapanisertib (TAK-228) in advanced solid tumours, with an expansion phase in renal, endometrial or bladder cancer” (British Journal of Cancer, 2020).

Test: Safety (adverse events, NCI CTCAE v4.0), expansion phase
Conditions: expansion QW 40 mg
Excerpt: Based on data collected during dose-escalation, the expansion phase evaluated the safety and efficacy of QD and QW sapanisertib in patients with RCC, endometrial or bladder cancer. Patients could continue receiving sapanisertib for ≤1 year (or beyond, if the investigator and sponsor agreed) in the absence of disease progression or unacceptable toxicity.
Patients who received ≥1 dose of sapanisertib were included in the safety population. The response-evaluable population included patients who received ≥1 dose of sapanisertib, had measurable disease at baseline, and had ≥1 postbaseline assessment. […] Adverse events (AEs) were assessed using the National Cancer Institute Common Terminology Criteria for Adverse Events, v4.0. Patients were provided with a home blood-glucose meter to monitor their fasting predose blood-glucose measurements to assess hyperglycaemia as an on-target AE and PD marker.

CC(C)n1nc(-c2ccc3oc(N)nc3c2)c2c(N)ncnc21 [Sapanisertib]
Abdominal pain, all-grade AE of any cause: 4 (15) n (%)
Abdominal pain, grade ≥3 AE of any cause: 0 (0) n (%)
Acute kidney injury, grade ≥3 AE of any cause: 2 (8) n (%)
Acute kidney injury, treatment-related AE: 4 (15) n (%)
Anaemia, all-grade AE of any cause: 11 (42) n (%)
Anaemia, grade ≥3 AE of any cause: 3 (12) n (%)
Anaemia, treatment-related AE: 8 (31) n (%)
Any AE: 26 (100) n (%)
Any AE resulting in dose modification/interruption: 20 (77) n (%)
Any AE resulting in treatment discontinuation: 2 (8) n (%)
Any SAE: 9 (35) n (%)
Any grade ≥3 AE: 19 (73) n (%)
Any treatment-related AE: 26 (100) n (%)
Any treatment-related SAE: 4 (15) n (%)
Any treatment-related grade ≥3 AE: 14 (54) n (%)
Arthralgia, all-grade AE of any cause: 7 (27) n (%)
Asthenia, grade ≥3 AE of any cause: 2 (8) n (%)
Asthenia, treatment-related AE: 4 (15) n (%)
Asthenia, treatment-related grade ≥3 AE: 1 (4) n (%)
Blood creatinine increased, all-grade AE of any cause: 5 (19) n (%)
Blood creatinine increased, treatment-related AE: 4 (15) n (%)
Constipation, all-grade AE of any cause: 10 (38) n (%)
Constipation, grade ≥3 AE of any cause: 1 (4) n (%)
Cough, all-grade AE of any cause: 8 (31) n (%)
Decreased appetite, all-grade AE of any cause: 14 (54) n (%)
Decreased appetite, treatment-related AE: 14 (54) n (%)
Dehydration, all-grade AE of any cause: 7 (27) n (%)
Dehydration, grade ≥3 AE of any cause: 3 (12) n (%)
Dehydration, treatment-related AE: 5 (19) n (%)
Dehydration, treatment-related grade ≥3 AE: 2 (8) n (%)
Depression, all-grade AE of any cause: 3 (12) n (%)
Diarrhoea, all-grade AE of any cause: 13 (50) n (%)
Diarrhoea, grade ≥3 AE of any cause: 1 (4) n (%)
Diarrhoea, treatment-related AE: 13 (50) n (%)
Diarrhoea, treatment-related grade ≥3 AE: 1 (4) n (%)
Dizziness, all-grade AE of any cause: 3 (12) n (%)
Dry mouth, all-grade AE of any cause: 7 (27) n (%)
Dry mouth, treatment-related AE: 6 (23) n (%)
Dysgeusia, all-grade AE of any cause: 3 (12) n (%)
Dysgeusia, treatment-related AE: 3 (12) n (%)
Dyspepsia, treatment-related AE: 2 (8) n (%)
Dyspnoea, grade ≥3 AE of any cause: 0 (0) n (%)
Fatigue, all-grade AE of any cause: 24 (92) n (%)
Fatigue, grade ≥3 AE of any cause: 4 (15) n (%)
Fatigue, treatment-related AE: 23 (88) n (%)
Fatigue, treatment-related grade ≥3 AE: 4 (15) n (%)
Haematuria, grade ≥3 AE of any cause: 0 (0) n (%)
Headache, all-grade AE of any cause: 6 (23) n (%)
Headache, treatment-related AE: 4 (15) n (%)
Hypercholesterolemia, treatment-related AE: 0 (0) n (%)
Hyperglycaemia, all-grade AE of any cause: 20 (77) n (%)
Hyperglycaemia, grade ≥3 AE of any cause: 6 (23) n (%)
Hyperglycaemia, treatment-related AE: 20 (77) n (%)
Hyperglycaemia, treatment-related grade ≥3 AE: 6 (23) n (%)
Hyperkalaemia, grade ≥3 AE of any cause: 0 (0) n (%)
Hypertension, grade ≥3 AE of any cause: 1 (4) n (%)
Hypokalaemia, grade ≥3 AE of any cause: 0 (0) n (%)
Hyponatremia, grade ≥3 AE of any cause: 1 (4) n (%)
Hypophosphatemia, grade ≥3 AE of any cause: 2 (8) n (%)
Hypophosphatemia, treatment-related AE: 4 (15) n (%)
Hypophosphatemia, treatment-related grade ≥3 AE: 2 (8) n (%)
Lymphopenia, grade ≥3 AE of any cause: 1 (4) n (%)
Lymphopenia, treatment-related grade ≥3 AE: 0 (0) n (%)
Musculoskeletal chest pain, grade ≥3 AE of any cause: 1 (4) n (%)
Nausea, all-grade AE of any cause: 20 (77) n (%)
Nausea, grade ≥3 AE of any cause: 2 (8) n (%)
Nausea, treatment-related AE: 20 (77) n (%)
Nausea, treatment-related grade ≥3 AE: 2 (8) n (%)
Oedema peripheral, all-grade AE of any cause: 5 (19) n (%)
On-study deaths: 1 (4) n (%)
Oropharyngeal pain, all-grade AE of any cause: 9 (35) n (%)
Pain in extremity, grade ≥3 AE of any cause: 1 (4) n (%)
Pneumonia, grade ≥3 AE of any cause: 0 (0) n (%)
Pruritus generalised, all-grade AE of any cause: 3 (12) n (%)
Pruritus generalised, treatment-related AE: 2 (8) n (%)
Pruritus generalised, treatment-related grade ≥3 AE: 0 (0) n (%)
Pruritus, all-grade AE of any cause: 4 (15) n (%)
Pruritus, treatment-related AE: 3 (12) n (%)
Pyrexia, all-grade AE of any cause: 5 (19) n (%)
Rash maculo-papular, all-grade AE of any cause: 4 (15) n (%)
Rash maculo-papular, grade ≥3 AE of any cause: 1 (4) n (%)
Rash maculo-papular, treatment-related AE: 1 (4) n (%)
Rash maculo-papular, treatment-related grade ≥3 AE: 0 (0) n (%)
Rash, treatment-related AE: 1 (4) n (%)
Rash, treatment-related grade ≥3 AE: 0 (0) n (%)
Sepsis, grade ≥3 AE of any cause: 0 (0) n (%)
Stomatitis (includes oropharyngeal pain and mucosal inflammation), treatment-related AE: 10 (38) n (%)
Stomatitis, all-grade AE of any cause: 12 (46) n (%)
Stomatitis, grade ≥3 AE of any cause: 1 (4) n (%)
Stomatitis, treatment-related grade ≥3 AE: 1 (4) n (%)
Thrombocytopenia, grade ≥3 AE of any cause: 1 (4) n (%)
Thrombocytopenia, treatment-related grade ≥3 AE: 1 (4) n (%)
Transitional cell carcinoma, grade ≥3 AE of any cause: 1 (4) n (%)
Urinary tract infection, all-grade AE of any cause: 8 (31) n (%)
Vomiting, all-grade AE of any cause: 20 (77) n (%)
Vomiting, grade ≥3 AE of any cause: 1 (4) n (%)
Vomiting, treatment-related AE: 19 (73) n (%)
Weight decreased, all-grade AE of any cause: 7 (27) n (%)
Weight decreased, treatment-related AE: 4 (15) n (%)
